Like-named read-outs stand apart in the source and are kept apart here.
Assays:
[1] = system: mature adipocytes (3T3-L1); experiment: Apoptosis assay (ApoStrand ELISA, single stranded DNA) in mature adipocytes; type: cell-based, mouse; settings: for increased apoptosis, alone: XN or GS alone; for effect on apoptosis: compound alone at 25 and 50 μM; for effect on apoptosis of mature adipocytes (ssDNA): individual compound, XN e.g. 50 μM at 48 hrs; for % Increase in apoptosis mean ± s.e.m.: mature adipocytes, concentration (μM) is the number in the treatment label
Description: Apoptosis assays. For the assessment of apoptosis, the ApoStrand ELISA Apoptosis Detection Kit (Biomol, Plymouth Meeting, Pa.) was used. This kit detects single stranded DNA, which occurs in apoptotic cells but not in necrotic cells or in cells with DNA breaks in the absence of apoptosis. Adipocytes were incubated with DMSO or the test compounds for the indicated times and at the indicated concentrations. Thereafter, treatment media was removed and the cells were fixed for 30 min and assayed according to the manufacturer's instructions.
The enhanced reduction in cell viability by XN plus HK was evaluated to determine if the reduction in cell viability was attributable to apoptosis.
The effects of XN and G on mature adipocytes apoptosis were investigated by measuring the changes of the levels of single strained DNA (ssDNA) in the cells.
(§1) The enhanced reduction in cell viability by XN plus GS was evaluated to determine if the reduction in cell viability was attributable to apoptosis.

caspase-3/7 = experiment: Caspase-3 and 7 activity assay (Caspase-Glo 3/7) in mature adipocytes; type: cell-based, mouse; settings: for caspase-3/7 activity: individual compound, XN 25, 50 μM, HK 25, 50, 75 μM, 12 h
Description: Caspase-3 and 7 activity assay. Adipocytes were incubated with DMSO or the test compounds and the indicated times and concentrations. Thereafter, 100 μl of caspase-Glo 3/7 reagent (Promega, Madison, Wis.) was added to each sample and the cells were incubated for 1 h and assayed according to the manufacturer's instructions.
Effects of XN and HK on caspase-3/−7 activation and PARP cleavage. To confirm apoptosis in response to combined treatment with XN and HK, the activity of caspase-3/7 was evaluated.
The caspases 3/7 activity was measured using a commercially available Caspase Glo 3/7 assay kit (Promega, Madison, Wis.), as described in Example 1.

3T3-L1 pre-adipocytes = experiment: Adipogenesis: lipid content (AdipoRed) during maturation of pre-adipocytes; type: cell-based, mouse; settings: compound alone, days 0-6 of differentiation
Description: Quantification of lipid content and oil red O staining. Lipid content was measured using a commercially available kit (AdipoRed Assay Reagent; Cambrex Bio Science, Walkersville, Inc.). Briefly, test compositions and a 0.01% DMSO control were added with the induction medium for days 0-6 of adipogenesis. Medium was changed every 2 days. On day 6, intracellular lipid content was measured by AdipoRed Assay. Cells were washed with PBS (pH 7.4) and 200 μl of PBS was added to the wells. About 5 μl of AdipoRed reagent was added to each well. After 10 min, the plates were placed in the fluorometer and fluorescence was measured with excitation wavelength of 485 nm and emission wavelength of 572 nm. To visualize lipid content, treated cells were stained with oil red O and hematoxylin as described by Suryawan and Hu. After mounting with glycerol gelatin, three images for each dish were captured using ImagePro software (MediaCybernetics, Silver Spring, Md.).
Effects of XN and HK on adipogenesis of post-confluent pre-adipocytes during maturation. Post-confluent pre-adipocytes were induced to differentiate for 0-6 days in differentiation medium with or without XN or HK for indicated times. […]
To determine the synergistic effects of XN and GS on adipogenesis, the effect of XN and GS on inhibiting lipid accumulation in (FIG. 15A) and viability of (FIG. 15B) maturing 3T3-L1 adipocytes was determined.

mature adipocytes [2] = experiment: Lipolysis in mature adipocytes; type: cell-based, mouse; settings: for lipolysis: XN or GS alone, 12 h incubation
Description: Effects of XN and HK on lipolysis in mature adipocytes. Mature adipocytes were incubated with either control or test compounds for indicated times.

cytochrome c = experiment: Cytochrome c release from mitochondria (Western blot); type: cell-based, mouse; settings: compound alone at 50 μM
Description: (§2) Western blot analysis. Following the indicated treatment, whole cell extracts were prepared by washing the cells with phosphate buffered saline (PBS) and suspending the cells in a lysis buffer (20 mM Tris, pH 7.5, 150 mM sodium chloride, 1 mM EDTA, 1 mM EGTA, 1% Triton X-100, 2.5 mM sodium pyrophosphate, 1 mM β-glycerophosphate, 1 mM sodium vanadate (Na3VO4), 1 μg/ml aprotinin, 1 μg/ml leupeptin, and 100 μg/ml phenylmethylsulfonyl fluoride). After 30 min of rocking at 4° C., the mixtures were centrifuged (10,000×g) for 10 min, and the supernatants were collected as whole-cell extracts. […] The protein concentration was determined by the method of Bradford with bovine serum albumin as the standard. […] Samples were heated to 70° C. for 10 min, separated by 12% acrylamide gels, and analyzed by immunoblotting. […]
(§3) Quantitative analysis of Western blot data. […] For statistical analysis, all data were expressed as integrated density values (IDV). For PARP, Bcl-2, and cytochrome c, IDVs were calculated as the density values of the specific protein bands/β-actin density values and expressed as percentage of the control.
(§4) Effects of XN and HK cytochrome c release from mitochondria and PARP cleavage in mature adipocytes. To further investigate whether XN and HK affects the intrinsic apoptosis induction pathway, the induction of cytochrome c release was evaluated by Western blotting.

[3] = system: Poly (ADP-ribose) polymerase (PARP); experiment: PARP cleavage in mature adipocytes (Western blot); type: cell-based, mouse; settings: compound alone
Description: as §2, §3, §4

mature adipocytes [4] = experiment: Hoechst staining of mature adipocytes; type: cell-based, mouse; settings: XN or GS alone
Description: as §1

Bcl-2 protein = Bcl-2 protein expression (Western blot); type: cell-based, mouse; settings: compound individually
Description: as §2, §3
To further investigate whether XN and GS affects the intrinsic apoptosis induction pathway, the expression of the anti-apoptotic Bcl-2 protein was evaluated by western blotting.

mature adipocytes [5] = experiment: Lipid content of mature adipocytes after 7-day treatment; type: cell-based, mouse; settings: individual compound, XN 6 μM and 12 μM, GS 12 μM and 25 μM, seven days
[6] = system: mature adipocytes (3T3-L1); experiment: Cell viability assay (MTS) in mature adipocytes; settings: for effect on cell viability: compound alone at 25 and 50 μM; for effect on viability of mature adipocytes: individual compound, 24 and 48 h
Description: (§5) 3T3-L1 mouse fibroblast were obtained from American Type Culture Collection (Manassas, Va.) and were cultured in Dulbecco's modified Eagle's medium (DMEM) (GIBCO, Grand Island, N.Y.) containing 10% bovine calf serum (BCS) until confluent. Two days after confluency, the cells were stimulated to differentiate with an induction medium (hereinafter “MDI”), which comprises DMEM containing 10% FBS, 167 nM insulin (Sigma), 0.5 μg of isobutylmethylxanthine (IBMX) (Sigma), and 1 μm of dexamethasone (Sigma) for two (2) days. Cells were then maintained on 10% FBS/DMEM with 167 nM insulin for another 2 days, followed by culturing with FBS/DMEM for an additional four days, at which time more than 90% of cells were mature adipocytes with accumulated fat droplets. All media contained 100 U/ml of penicillin, 100 μg/ml of streptomycin, and 292 μg/ml of glutamine. Cells were maintained at 37° C. in a 5% CO2 humidified environment.
(§6) Cell viability assay. Adipocytes were incubated with dimethyl sulfoxide (DMSO) (0.02%) or test compounds. Prior to measuring viability, treatment media were removed and replaced with 100 μl fresh 10% FBS/DMEM medium and 20 μl MTS solution (Promega, Madison, Wis.). Cells were then returned to the incubator for an additional 2 h before 25 μl of 10% sodium dodecyl sulfate (SDS) was added to stop the reaction. The absorbance was measured at 490 nm in a plate reader (μQuant Bio-Tek Instruments, Inc. Winooski, Vt.) to determine the formazan concentration, which is proportional to the number of live cells.
(§7) Adipocytes were treated with XN (25, 50 μM) and HK (25, 50, 75 μM) as individual compounds or in combination for 12, 24, and 48 h. After treatment, cell viability was determined by the MTS assay, as described in Example 1.
(§8) Adipocytes were treated with XN (25, 50 μM) and G (50, 100 μM) as individual compounds or in combination for 24 and 48 h. After treatment, cell viability was determined by the MTS assay, as described in Example 1.
(§9) Adipocytes were treated with XN (25, 50, 75 μM) and GS (25, 50, 75 μM) as individual compounds or in combination for 24 and 48 h. After treatment, cell viability was determined by the MTS assay, as described in Example 1.

[7] = system: mature adipocytes (3T3-L1); settings: mouse, 48 h
Description: as §5, §6, §7, §8, §9

Row | SMILES | increased apoptosis, alone [1] | effect on apoptosis ([1]; 24 h) | effect on apoptosis of mature adipocytes (ssDNA) [1] | caspase-3/7 activity (caspase-3/7) | lipid accumulation during maturation (3T3-L1 pre-adipocytes) | lipolysis (mature adipocytes [2]) | effect on cytochrome c release (cytochrome c) | effect on PARP cleavage [3] | Hoechst staining, individual treatments (mature adipocytes [4]) | Bcl-2 protein level (Bcl-2 protein) | lipid accumulation in mature adipocytes (mature adipocytes [5]) | effect on cell viability ([6]; 48 h) | effect on viability of mature adipocytes ([6]; XN 25, 50 μM, G 50, 100 μM) | effect on viability of mature adipocytes ([6]; XN or GS 25, 50, 75 μM) | other results
1 | COc1cc(O)c(CC=C(C)C)c(O)c1C(=O)/C=C/c1ccc(O)cc1 [XN, Xanthohumol] | about 20% | no effect | increased apoptosis | increased caspase-3/7 activity in a dose-dependent manner | decreased lipid accumulation | increased lipolysis slightly | neither 50 μM of XN nor 50 μM of HK had an effect | neither compound alone may affect | small increase in staining | decreased Bcl-2 | decreased lipid accumulation | no effect | decreased the viability of mature adipocytes in a dose-dependent and time-dependent manner | decreased the viability of mature adipocytes in a dose-dependent and time-dependent manner | % Increase in apoptosis mean ± s.e.m. ([1]; 24 h): 51.0 ± 16.5%; increase in lipolysis (mature adipocytes [2]; XN 50 μM alone): 20%; % Decrease in viability mean ± s.e.m. ([6]; mature adipocytes, 48 h, concentration (μM) is the number in the treatment label): −2.8 ± 1.5%
2 | O=c1c(-c2ccc(O)cc2)coc2cc(O)cc(O)c12 [G, 4,5,7-trihydroxyisoflavone] | – | – | did not affect apoptosis | – | – | – | – | – | – | – | – | – | did not affect the viability | – | –
3 | C=CCc1ccc(O)c(-c2ccc(O)c(CC=C)c2)c1 [HK, Honokiol] | – | no effect | – | increased caspase-3/7 activity in a dose-dependent manner | increased lipid accumulation | – | neither 50 μM of XN nor 50 μM of HK had an effect | neither compound alone may affect | – | – | – | no effect | – | – | increased apoptosis ([1]; alone at 75 μM, 24 h, P<0.05): 70.4±15.9%; % Increase in apoptosis mean ± s.e.m. ([1]; 24 h, listed as HK50): 10.8 ± 5.9%; % Increase in apoptosis mean ± s.e.m. ([1]; 24 h, listed as HK75): 70.4 ± 15.9%; % Decrease in viability mean ± s.e.m. [7]: −1.8 ± 1.5%; cytotoxicity at 75 µM ([6]; Mus musculus, 3T3-L1, 48 h, read-out: decreased cell viability): 9.1 ± 2.5%
4 | C/C=C1\C(=O)C[C@H]2[C@@H]3CCC4=CC(=O)CC[C@]4(C)[C@H]3CC[C@]12C [GS, Guggulsterone] | about 20% | – | – | – | – | increased lipolysis slightly | – | – | small increase in staining | decreased Bcl-2 | decreased lipid accumulation | – | – | decreased the viability of mature adipocytes in a dose-dependent and time-dependent manner | caspase 3/7 activity (caspase-3/7; GS alone at 75 μM): increased caspase activity

— US8101213B2, “Xanthohumol compositions and methods of using same” (The University of Georgia Research Foundation, Inc, priority 2007, dated 2012)
